4 molecules from BindingDB's records for doi:10.1021/acs.biochem.5b00106 (Louis Stokes Cleveland Veterans Affairs Medical Center, 2015) can be followed below.

Test [1] concerns the target Metallo-beta-lactamase VIM-2 (Klebsiella pneumoniae, UniProt Q3Y6Q3). The test can be described thus: Direct Competition Assay. As for the experimental part: (§1) The Ki for each inhibitor was determined by direct competition assays under steady-state conditions. The initial velocity was measured in the presence of a constant concentration of enzyme (3 nM for VIM-2 and 4 nM for VIM-24) with increasing concentrations of inhibitor (5−60 μM) against a fixed concentration (5KM) of the indicator substrate, NCF, as previously described. The reactionswere started by addition of VIM-2 or VIM-24 to substrate or to mixtures of substrate and inhibitor.

A further test concerns the target VIM-24 (Klebsiella pneumoniae, UniProt E0AFT6). Kind of test: Direct Competition Assay. As for the experimental part:
as §1

By Ki is commonly meant a dissociation constant, usually derived from enzyme kinetics or from competition with a known ligand.

For `CC1(C)S[C@H]2CS[C@H](CS)N2[C@@H]1C(=O)O` [L-VC26], the Ki in test [1] came to 3.8 µM; at VIM-24 it was 4.9 µM.

On to `O=C(O)[C@@H]1CS[C@H]2CS[C@H](CS)N21` [L-CS319], for which the Ki in test [1] came to 3.7 µM; on VIM-24, 6 µM.

As for `O=C(O)[C@H]1CS[C@@H]2CS[C@@H](CS)N12` [D-CS319], the inhibition constant (Ki) in test [1] is 5.4 µM; at VIM-24, 11 µM.

With `CC1(C)S[C@@H]2CS[C@@H](CS)N2[C@H]1C(=O)O` [D-VC26], the Ki in test [1] stood at 14 µM; at VIM-24, 12 µM.
